# In PubChem BioAssay (NCI):
#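 Exposure lasted 48 hours, with cells grown in 96-well plates and compounds tested at five concentrations. GI50 = concentration required for 50% inhibition of growth. Definition used: TGI = concentration required for complete inhibition of growth.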
# Tests used:
# Test in all cases: growth of human tumour cells (NCI), 48 h
# [1] = test system: SK-OV-3 ovarian
# [2] = test system: SNB-75 CNS
# [3] = test system: MDA-MB-231 breast
# [4] = test system: HCC-2998 colon
# [5] = test system: HOP-92 NSCLC
# [6] = test system: M14 melanoma
# [7] = test system: EKVX NSCLC
# [8] = test system: DU-145 prostate
# [9] = test system: K-562 leukemia
# [10] = test system: A498 renal
# [11] = test system: PC-3 prostate
# [12] = test system: ACHN renal
# [13] = test system: 786-0 renal
# [14] = test system: KM12 colon
# [15] = test system: MCF7 breast
# [16] = test system: SR leukemia
# [17] = test system: UACC-62 melanoma
# [18] = test system: LOX IMVI melanoma
# [19] = test system: TK-10 renal
# [20] = test system: NCI-H226 lung
# [21] = test system: RPMI-8226 leukemia
# [22] = test system: SNB-19 CNS
# [23] = test system: CCRF-CEM leukemia
# [24] = test system: T-47D breast
# [25] = test system: NCI-H23 lung
# [26] = test system: NCI-H460 lung
# [27] = test system: SK-MEL-2 melanoma
# [28] = test system: COLO 205 colon
# [29] = test system: HCT-116 colon
# [30] = test system: OVCAR-4 ovarian
# [31] = test system: IGROV1 ovarian
# [32] = test system: OVCAR-8 ovarian
# [33] = test system: SF-268 CNS
# [34] = test system: NCI-H522 lung
# [35] = test system: SF-539 CNS
# [36] = test system: SK-MEL-28 melanoma
# [37] = test system: U251 CNS
# [38] = test system: BT-549 breast
# [39] = test system: SK-MEL-5 melanoma
# [40] = test system: CAKI-1 renal
# [41] = test system: NCI/ADR-RES ovarian
# [42] = test system: OVCAR-3 ovarian
# [43] = test system: MALME-3M melanoma
# [44] = test system: HCT-15 colon
# [45] = test system: MOLT-4 leukemia
# [46] = test system: UO-31 renal
# [47] = test system: SN12C renal
# [48] = test system: RXF 393 renal
# [49] = test system: HOP-62 NSCLC
# [50] = test system: OVCAR-5 ovarian
# [51] = test system: SF-295 CNS
# [52] = test system: A549 NSCLC
# [53] = test system: HT29 colon
# [54] = test system: HL-60(TB) leukemia
# [55] = test system: UACC-257 melanoma
# [56] = test system: MDA-MB-435
# [57] = test system: HS 578T breast
# [58] = test system: SW-620 colon
smiles,measurement,setting,value
Cc1cccc(-c2cc(=O)c3ccc(C)nc3[nH]2)c1,TGI,[1],> 100 µM
same,TGI,[2],49.2 µM
same,TGI,[3],5.87 µM
same,TGI,[4],27.4 µM
same,TGI,[5],57.7 µM
same,TGI,[6],> 100 µM
same,TGI,[7],> 100 µM
same,TGI,[8],> 56.9 µM
same,TGI,[9],> 100 µM
same,TGI,[10],> 51.1 µM
same,TGI,[11],> 82.9 µM
same,TGI,[12],> 100 µM
same,TGI,[13],> 100 µM
same,TGI,[14],20.5 µM
same,TGI,[15],> 100 µM
same,TGI,[16],2.07 µM
same,TGI,[17],> 100 µM
same,TGI,[18],> 100 µM
same,TGI,[19],> 84.6 µM
same,TGI,[20],26.8 µM
same,TGI,[21],23.2 µM
same,TGI,[22],> 100 µM
same,TGI,[23],> 22.8 µM
same,TGI,[24],> 100 µM
same,TGI,[25],> 37.9 µM
same,TGI,[26],19.5 µM
same,TGI,[27],> 100 µM
same,TGI,[28],4.06 µM
same,TGI,[29],> 20.4 µM
same,TGI,[30],> 100 µM
same,TGI,[31],> 100 µM
same,TGI,[32],> 100 µM
same,TGI,[33],> 100 µM
same,TGI,[34],0.75 µM
same,TGI,[35],14.6 µM
same,TGI,[36],> 100 µM
same,TGI,[37],> 100 µM
same,TGI,[38],> 100 µM
same,TGI,[39],15.4 µM
same,TGI,[40],> 100 µM
same,TGI,[41],0.383 µM
same,TGI,[42],0.503 µM
same,TGI,[43],> 100 µM
same,TGI,[44],> 35.2 µM
same,TGI,[45],> 80.6 µM
same,TGI,[46],> 100 µM
same,TGI,[47],> 100 µM
same,TGI,[48],> 100 µM
same,TGI,[49],> 100 µM
same,TGI,[50],> 100 µM
same,TGI,[51],14.9 µM
same,TGI,[52],> 100 µM
same,TGI,[53],1.82 µM
same,TGI,[54],0.526 µM
CCCCCCCCCCCCCC1=NCC[N+]1(CCO)Cc1ccccc1 (centres undefined),GI50,[1],1.86 µM
same,TGI,[1],3.8 µM
same,GI50,[2],1.45 µM
same,TGI,[2],2.81 µM
same,GI50,[3],1.54 µM
same,TGI,[3],3.14 µM
same,GI50,[8],1.77 µM
same,TGI,[8],3.23 µM
same,GI50,[11],1.64 µM
same,TGI,[11],3.23 µM
same,GI50,[12],1.63 µM
same,TGI,[12],3.1 µM
same,GI50,[16],1.51 µM
same,TGI,[16],4.2 µM
same,GI50,[55],2 µM
same,TGI,[55],3.72 µM
same,GI50,[19],1.71 µM
same,TGI,[19],3.28 µM
same,GI50,[21],1.85 µM
same,TGI,[21],4.8 µM
same,GI50,[35],1.68 µM
same,TGI,[35],3.16 µM
same,GI50,[36],1.7 µM
same,TGI,[36],3.22 µM
same,GI50,[50],1.57 µM
same,TGI,[50],3.07 µM
same,GI50,[56],1.69 µM
same,TGI,[56],3.18 µM
CC(SC(=S)N1CCCCC1)C(=O)Nc1nnc(-c2ccc(Cl)cc2)o1 (centres undefined),TGI,[1],> 100 µM
same,TGI,[2],> 100 µM
same,TGI,[3],> 100 µM
same,TGI,[4],> 100 µM
same,TGI,[57],> 100 µM
same,TGI,[5],> 100 µM
same,TGI,[6],53.7 µM
same,TGI,[8],> 100 µM
same,TGI,[9],> 100 µM
same,TGI,[10],88.6 µM
same,TGI,[11],82.9 µM
same,TGI,[12],> 100 µM
same,TGI,[13],47.5 µM
same,TGI,[15],76.1 µM
same,TGI,[55],> 100 µM
same,TGI,[17],75.1 µM
same,TGI,[18],> 100 µM
same,TGI,[58],> 100 µM
same,TGI,[19],> 100 µM
same,TGI,[20],> 100 µM
same,TGI,[21],51.5 µM
same,TGI,[22],> 100 µM
same,TGI,[24],> 100 µM
same,TGI,[25],> 100 µM
same,TGI,[26],> 100 µM
same,TGI,[27],77.1 µM
same,TGI,[28],> 100 µM
same,TGI,[29],40.3 µM
same,TGI,[30],> 100 µM
same,TGI,[31],> 100 µM
same,TGI,[32],> 100 µM
same,TGI,[33],81.1 µM
same,TGI,[35],> 100 µM
same,TGI,[36],> 100 µM
same,TGI,[37],> 100 µM
same,TGI,[38],> 100 µM
same,TGI,[39],> 100 µM
same,TGI,[41],> 100 µM
same,TGI,[42],64.2 µM
same,TGI,[43],72.6 µM
same,TGI,[44],> 100 µM
same,TGI,[46],54 µM
same,TGI,[47],51.6 µM
same,TGI,[48],> 100 µM
same,TGI,[49],> 100 µM
same,TGI,[50],> 100 µM
same,TGI,[52],> 100 µM
same,TGI,[56],> 100 µM
same,TGI,[53],54.6 µM
same,TGI,[54],23.1 µM
Nc1ccn(C2CSC(CO)O2)c(=O)n1 (centres undefined),GI50,[25],> 1000 µM
same,TGI,[25],> 1000 µM
COc1ccc(/C=C(/C(=O)N2CCCC2)c2cc(OC)c(OC)c(OC)c2)cc1N,GI50,[1],2.78 µM
same,TGI,[1],> 100 µM
same,GI50,[2],2.18 µM
same,TGI,[2],> 100 µM
same,GI50,[3],5.75 µM
same,TGI,[3],> 100 µM
same,GI50,[4],6.76 µM
same,TGI,[4],> 100 µM
same,GI50,[57],2.41 µM
same,TGI,[57],> 100 µM
same,GI50,[5],9.92 µM
same,TGI,[5],> 100 µM
same,GI50,[7],4.63 µM
same,TGI,[7],> 100 µM
same,GI50,[8],2.65 µM
same,TGI,[8],> 100 µM
same,GI50,[9],0.926 µM
same,TGI,[9],> 100 µM
same,GI50,[10],1.26 µM
same,TGI,[10],> 100 µM
same,GI50,[11],2.1 µM
same,TGI,[11],> 100 µM
same,GI50,[12],5.73 µM
same,TGI,[12],> 100 µM
same,GI50,[13],2.7 µM
same,TGI,[13],> 100 µM
same,GI50,[14],1.55 µM
same,TGI,[14],> 100 µM
same,GI50,[15],0.921 µM
same,TGI,[15],> 100 µM
same,GI50,[16],0.719 µM
same,TGI,[16],> 100 µM
same,GI50,[55],> 100 µM
same,TGI,[55],> 100 µM
same,GI50,[17],1.03 µM
same,TGI,[17],> 100 µM
same,GI50,[18],3.77 µM
same,TGI,[18],> 100 µM
same,GI50,[58],2.48 µM
same,TGI,[58],> 100 µM
same,GI50,[19],11.1 µM
same,TGI,[19],> 100 µM
same,GI50,[20],4.44 µM
same,TGI,[20],> 100 µM
same,GI50,[21],4.05 µM
same,TGI,[21],> 100 µM
same,GI50,[22],2.87 µM
same,TGI,[22],> 100 µM
same,GI50,[23],3.19 µM
same,TGI,[23],> 100 µM
same,GI50,[24],3.91 µM
same,TGI,[24],> 100 µM
same,GI50,[25],4.61 µM
same,TGI,[25],> 100 µM
same,GI50,[26],2.96 µM
same,TGI,[26],> 100 µM
same,GI50,[27],4.72 µM
same,TGI,[27],> 100 µM
same,GI50,[28],3.06 µM
same,TGI,[28],11 µM
same,GI50,[29],1.08 µM
same,TGI,[29],> 100 µM
same,GI50,[30],28.2 µM
same,TGI,[30],> 100 µM
same,GI50,[31],3.93 µM
same,TGI,[31],> 100 µM
same,GI50,[32],8.92 µM
same,TGI,[32],> 100 µM
same,GI50,[33],5.44 µM
same,TGI,[33],> 100 µM
same,GI50,[34],2.34 µM
same,TGI,[34],> 100 µM
same,GI50,[35],1.9 µM
same,TGI,[35],6.75 µM
same,GI50,[36],5.68 µM
same,TGI,[36],> 100 µM
same,GI50,[37],4.18 µM
same,TGI,[37],> 100 µM
same,GI50,[38],6.52 µM
same,TGI,[38],57.8 µM
same,GI50,[39],2.51 µM
same,TGI,[39],> 100 µM
same,GI50,[40],2.35 µM
same,TGI,[40],> 100 µM
same,GI50,[41],4.21 µM
same,TGI,[41],63.9 µM
same,GI50,[42],0.992 µM
same,TGI,[42],6.34 µM
same,GI50,[43],4.25 µM
same,TGI,[43],> 100 µM
same,GI50,[44],2.28 µM
same,TGI,[44],> 100 µM
same,GI50,[45],4.74 µM
same,TGI,[45],> 100 µM
same,GI50,[46],6.87 µM
same,TGI,[46],> 100 µM
same,GI50,[47],4.86 µM
same,TGI,[47],> 100 µM
same,GI50,[49],4.07 µM
same,TGI,[49],> 100 µM
same,GI50,[50],7.63 µM
same,TGI,[50],> 100 µM
same,GI50,[51],1.11 µM
same,TGI,[51],> 100 µM
same,GI50,[52],4.14 µM
same,TGI,[52],> 100 µM
same,GI50,[53],2.3 µM
same,TGI,[53],> 100 µM
same,GI50,[54],2.07 µM
same,TGI,[54],7.65 µM
